Results as given in patent US9560989B2, “Method for determining the metabolic capacity of at least one enzyme” (HUMEDICS GMBH, priority 2011, dated 2017).

Legend:
CYP450 1A2 [1] = biological target: T1, CYP450 1A2 (Homo sapiens, UniProt P05177); conditions: in vivo
T1 sequence (P05177 1-516): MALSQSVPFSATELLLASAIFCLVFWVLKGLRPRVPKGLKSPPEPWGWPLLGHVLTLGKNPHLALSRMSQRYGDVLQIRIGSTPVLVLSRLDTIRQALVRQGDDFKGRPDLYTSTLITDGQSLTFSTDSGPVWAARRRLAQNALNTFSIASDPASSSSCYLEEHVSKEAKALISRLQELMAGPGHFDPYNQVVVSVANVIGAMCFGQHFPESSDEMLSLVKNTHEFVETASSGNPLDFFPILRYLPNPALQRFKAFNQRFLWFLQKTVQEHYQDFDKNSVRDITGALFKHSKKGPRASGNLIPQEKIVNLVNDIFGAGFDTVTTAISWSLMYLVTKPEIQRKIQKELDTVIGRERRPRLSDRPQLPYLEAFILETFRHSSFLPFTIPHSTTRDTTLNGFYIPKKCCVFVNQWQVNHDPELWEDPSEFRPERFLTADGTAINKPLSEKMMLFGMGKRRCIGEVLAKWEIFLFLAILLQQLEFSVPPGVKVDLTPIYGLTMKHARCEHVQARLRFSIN
Experimental: As substrate, ^13C-labeled methacetin at a dose of 2 mg per kilogram bodyweight of the individual was administered to the individual, wherein the release period was shorter than 60 seconds. In the body of the individual the ^13C-labeled methacetin was metabolized in the liver to paracetamol and ^13C-labeled CO2. The latter was detected as product in the air exhaled by the individual.
1 DOB here refers to a change of the ^13CO2-to-^12CO2-ratio by a thousandth above the natural ratio. The obtained measured values, illustrated in FIG. 1, are subsequently fitted with a suitable model function. […] From this model function—with a function equation familiar as such—different parameters can now be derived which specify the function. […]
As methacetin is almost solely metabolized in the liver, with the specified metabolism dynamics it is possible to directly and immediately trace the metabolism of the administered substrate by the enzymes existing in the liver. […] Here, for instance the value of the maximum product concentration in the exhaled air Pmax allows a statement to be made about the number of the healthy liver cells and the liver volume which is thus available for metabolism; whereas the rise in the form of the time constant(s) of the model function, fitted to the measured values, allows statements to be made about the entrance velocity of the substrate into the liver cells. […]

CYP450 1A2 [2] = biological target: T1, CYP450 1A2; experiment: metabolic power of the liver determined by methacetin metabolism at different dosages; assay type: in vivo; parameters: metabolized to ^13CO2 and paracetamol in the liver cells by the enzyme CYP450 1A2; from tissue; host or cells: liver of the living individual (in vivo); conditions: FIG. 2
Experimental: The metabolic power was determined according to the formulae indicated above for different methacetin metabolisms observed after methacetin administration in different dosages. Specifically, 1 mg ^13C-labeled methacetin per kg bodyweight, 2 mg/kg, 4 mg/kg and 8 mg/kg were administered.
This non-linearity is expressed by the function L(n/M), wherein n denotes the number of substrate molecules, i.e. methacetin molecules, and M denotes the bodyweight in kg. This function L(n/M) forms part of the fitting curve represented in FIG. 2 by the interpolation curve between the single measurement points.

time point of half-maximum methacetine metabolism (t1/2) (CYP450 1A2 [1]): ~1.5 min
time point of maximum methacetine metabolism (tmax) (CYP450 1A2 [1]): ~6.5 min
dependence of the measured signals on dosage (CYP450 1A2 [2]; 1 mg per kg body weight): linear dependence
dependence of the measured signals on dosage (CYP450 1A2 [2]; 2 mg/kg): linear dependence
deviation from the linear behaviour (CYP450 1A2 [2]; 4 mg/kg): 10%
deviation from the linear behaviour (CYP450 1A2 [2]; 8 mg/kg): more than 20%
SMILES: COc1ccc(NC(C)=O)cc1 [13C-labeled methacetin]
